Measured values reported in article PMC5830399, “Aggregating sequences that occur in many proteins constitute weak spots of bacterial proteostasis” (Nature Communications, 2018).
≈ marks a conversion by molar mass, not a printed value. Peptide text beside a SMILES is read from it. * marks the point of attachment. FITC = O=C1OC2(c3ccc(O)cc3Oc3cc(O)ccc32)c2ccc(NC(=S)*)cc21

Experiments:
Type in all cases: cell-based, Escherichia coli
E. coli O157:H7 [1] = details: E. coli O157(:H7); HPLC-purified peptide; broth microdilution (EUCAST), LB, overnight 37 °C, OD 590 nm
Method: The MICs of active peptides were determined via the Broth microdilution assay according to the EUCAST guideline, which was performed in 96-well polystyrene flat bottom microtiter plates (BD Biosciences). Briefly, a single colony was inoculated into 5 mL LB medium and grown to the end-exponential growth phase in a shaking incubator at 37 °C. Cultures were subsequently diluted to an OD600 (optical density) of 0.002 ([…]) in fresh LB medium. One hundred microliters of LB medium with different concentration of peptides ranging from 100 to 0.75 µg/mL were serially diluted to the sterile 96-well plate (at least three wells in each plate). Afterwards, 100 µL of the diluted bacteria were pipetted into 96-well plates containing different concentration of peptides. In each plate, the grown bacteria with the maximum concentration of carrier and medium were considered as positive and negative controls, respectively. Thereafter, 96-well plates were statically incubated overnight at 37 °C to allow bacterial growth. OD was measured at 590 nm for 1 s using a multipurpose ultraviolet–visible plate reader, and the absorbance of the growth bacteria was measured using a Perkin Elmer spectrophotometer (1420 Multilabel Counter Victor 3).

E. coli O157 = details: HPLC-purified peptide
Excerpt: In order to investigate whether APR redundancy does result in proteostatic collapse, we selected resynthesized and high-performance liquid chromatography (HPLC)-purified four positive peptides from the screen, P2, P5, P14, and P105, as well as three negative peptides, P3, P4, and P11, and confirmed their MIC and minimum bactericidal concentration (MBC) values (Table 1). […] These IBs, which are also called large polar aggregates, could be stained with pentameric formyl thiophene acetic acid (pFTAA, Fig. 1j and supplementary Fig. 3), an extensively characterized amyloid-specific dye[20]–[22], which specifically binds to amyloid-like aggregates as well as disease-associated protein IBs[22]. This IB-staining pattern could be observed for all bactericidal peptides, but not for any of the other peptides, although some other pFTAA-positive structures could be discerned (Supplementary Fig. 3). We confirmed the cross-β-structure content of IB using thioflavin-T staining and correlative atomic force microscopy nanoimaging and Fourier transform infrared spectroscopy (Supplementary Note 2 and Supplementary Fig. 4).

E. coli O157:H7 [2] = test: Flow cytometry of bacteria treated with FITC peptides (uptake) and propidium iodide; details: for cells positive for FITC (peptide uptake): E. coli O157:H7, FITC-labeled peptide at MIC, flow cytometry; for PI-positive cells (membrane permeabilization): E. coli O157:H7, peptide at MIC, N = 4
Method: Using a double staining technique with propidium iodide (PI) and FITC peptides, killing rate and peptide uptake were evaluated in a two-dimensional analysis. Briefly, end-exponential growth phase E. coli O157 cells (10^8 CFU/mL) were washed with PBS and treated with peptides (P2 or Pro2/ FITC labeled) at MIC value for different time periods. Treated bacteria were again washed with PBS buffer three times. One microliter of PI (Invitrogen) was added to the bacteria, and after incubation for 5 min, the mixture was aliquoted (500 µL) into FACS tubes. To correlate the activity of the peptides with cell death, the fluorescence intensity was measured in two channels using the Gallios^TM Flow Cytometer, PI: excitation 536 nm and emission 617 nm, FITC: excitation 490 nm and emission 525 nm. Heated bacteria at 90 °C for 10 min were used as PI-positive control.

Compound | MIC (E. coli O157:H7 [1]) | MBC (E. coli O157) | cells positive for FITC (peptide uptake) (E. coli O157:H7 [2]; after 15 min, N = 4, mean and s.d.) | cells positive for FITC (peptide uptake) (E. coli O157:H7 [2]; after 1 h and beyond) | PI-positive cells (membrane permeabilization) (E. coli O157:H7 [2]; after 15 min) | PI-positive cells (membrane permeabilization) (E. coli O157:H7 [2]; after 3 h)
CC(C)C[C@H](NC(=O)[C@H](C)NC(=O)[C@H](CCCNC(=N)N)NC(=O)[C@@H]1CCCN1C(=O)[C@H](CCCNC(=N)N)NC(=O)[C@H](CCCNC(=N)N)NC(=O)[C@H](CC(C)C)NC(=O)[C@H](CC(C)C)NC(=O)[C@@H](NC(=O)[C@@H](NC(=O)[C@H](CC(C)C)NC(=O)[C@H](CC(C)C)NC(=O)[C@H](C)NC(=O)[C@H](CCCNC(=N)N)NC(=O)[C@@H](N)CCCNC(=N)N)[C@@H](C)O)[C@@H](C)O)C(=O)N[C@@H](CC(C)C)C(=O)N[C@H](C(=O)N[C@H](C(=O)N[C@@H](CC(C)C)C(=O)N[C@@H](CC(C)C)C(=O)N[C@@H](CCCNC(=N)N)C(=O)N[C@@H](CCCNC(=N)N)C(=O)O)[C@@H](C)O)[C@@H](C)O [P5R] (H-RRALLTTLLRRPRALLTTLLRR-OH) | 12 µg/mL (≈ 4.51 µM) | 12 µg/mL (≈ 4.51 µM) | – | – | – | –
CC(C)C[C@H](NC(=O)[C@H](C)NC(=O)[C@@H](N)CCCNC(=N)N)C(=O)N[C@@H](CC(C)C)C(=O)N[C@@H](CCCNC(=N)N)C(=O)N[C@H](C(=O)N[C@@H](CC(C)C)C(=O)N[C@@H](CC(C)C)C(=O)N[C@@H](CCCNC(=N)N)C(=O)N[C@@H](CCCNC(=N)N)C(=O)N1CCC[C@H]1C(=O)N[C@@H](CCCNC(=N)N)C(=O)N[C@@H](C)C(=O)N[C@@H](CC(C)C)C(=O)N[C@@H](CC(C)C)C(=O)N[C@H](C(=O)N[C@H](C(=O)N[C@@H](CC(C)C)C(=O)N[C@@H](CC(C)C)C(=O)N[C@@H](CCCNC(=N)N)C(=O)N[C@@H](CCCNC(=N)N)C(=O)O)[C@@H](C)O)[C@@H](C)O)[C@@H](C)O [P105] (H-RALLRTLLRRPRALLTTLLRR-OH) | 12 µg/mL (≈ 4.69 µM) | 12 µg/mL (≈ 4.69 µM) | – | – | – | –
CC(C)C[C@H](NC(=O)CNC(=O)[C@H](CCCNC(=N)N)NC(=O)[C@@H]1CCCN1C(=O)[C@H](CCCNC(=N)N)NC(=O)[C@H](CCCNC(=N)N)NC(=O)[C@H](C)NC(=O)[C@H](CC(C)C)NC(=O)[C@H](CC(C)C)NC(=O)[C@H](C)NC(=O)[C@H](CC(C)C)NC(=O)[C@H](CC(C)C)NC(=O)CNC(=O)[C@@H](N)CCCNC(=N)N)C(=O)N[C@@H](CC(C)C)C(=O)N[C@@H](C)C(=O)N[C@@H](CC(C)C)C(=O)N[C@@H](CC(C)C)C(=O)N[C@@H](C)C(=O)N[C@@H](CCCNC(=N)N)C(=O)N[C@@H](CCCNC(=N)N)C(=O)O [P14] (H-RGLLALLARRPRGLLALLARR-OH) | 6 µg/mL (≈ 2.55 µM) | 6 µg/mL (≈ 2.55 µM) | – | – | – | –
CC(C)C[C@H](NC(=O)CNC(=O)[C@H](CCCNC(=N)N)NC(=O)[C@@H]1CCCN1C(=O)[C@H](CCCNC(=N)N)NC(=O)[C@H](CCCNC(=N)N)NC(=O)[C@@H]1CCCN1C(=O)[C@H](CC(C)C)NC(=O)[C@H](C)NC(=O)[C@@H]1CCCN1C(=O)CNC(=O)[C@H](CC(C)C)NC(=O)CNC(=O)[C@@H](N)CCCNC(=N)N)C(=O)NCC(=O)N1CCC[C@H]1C(=O)N[C@@H](C)C(=O)N[C@@H](CC(C)C)C(=O)N1CCC[C@H]1C(=O)N[C@@H](CCCNC(=N)N)C(=O)N[C@@H](CCCNC(=N)N)C(=O)O [P2Pro] (H-RGLGPALPRRPRGLGPALPRR-OH) | – | >100 µg/mL | – | – | – | –
CC(C)C[C@H](NC(=O)[C@H](C)NC(=O)[C@H](CCCNC(=N)N)NC(=O)[C@@H]1CCCN1C(=O)[C@H](CCCNC(=N)N)NC(=O)[C@H](CCCNC(=N)N)NC(=O)[C@H](CC(C)C)NC(=O)[C@H](CC(C)C)NC(=O)[C@@H](NC(=O)[C@@H](NC(=O)[C@H](CC(C)C)NC(=O)[C@H](CC(C)C)NC(=O)[C@H](C)NC(=O)[C@@H](N)CCCNC(=N)N)[C@@H](C)O)[C@@H](C)O)C(=O)N[C@@H](CC(C)C)C(=O)N[C@H](C(=O)N[C@H](C(=O)N[C@@H](CC(C)C)C(=O)N[C@@H](CC(C)C)C(=O)N[C@@H](CCCNC(=N)N)C(=O)N[C@@H](CCCNC(=N)N)C(=O)O)[C@@H](C)O)[C@@H](C)O [P5] (H-RALLTTLLRRPRALLTTLLRR-OH) | 6 µg/mL (≈ 2.4 µM) | 6 µg/mL (≈ 2.4 µM) | – | – | – | –
CC(C)C[C@H](NC(=O)CNC(=O)[C@H](CCCNC(=N)N)NC(=O)[C@@H]1CCCN1C(=O)[C@H](CCCNC(=N)N)NC(=O)[C@H](CCCNC(=N)N)NC(=O)[C@@H](NC(=O)[C@H](CC(C)C)NC(=O)[C@H](C)NC(=O)[C@H](CC(C)C)NC(=O)CNC(=O)[C@H](CC(C)C)NC(=O)CNC(=O)[C@H](CCCNC(=N)N)NC(=S)Nc1ccc2c(c1)C(=O)OC21c2ccc(O)cc2Oc2cc(O)ccc21)C(C)C)C(=O)NCC(=O)N[C@@H](CC(C)C)C(=O)N[C@@H](C)C(=O)N[C@@H](CC(C)C)C(=O)N[C@H](C(=O)N[C@@H](CCCNC(=N)N)C(=O)N[C@@H](CCCNC(=N)N)C(=O)O)C(C)C [FITC-P2] ({FITC}-RGLGLALVRRPRGLGLALVRR-OH; N-terminus and C-terminus assumed) | – | – | 97.7 ± 2.9% | ~100% | 2.1 ± 1.3% | 85 ± 13.2%
